Laboratory results from US10183015B2, “Heterocyclic compounds and methods of use” (Medivation Technologies LLC, priority 2015, dated 2019).
“And” between values parts separate entries of the source, which are not always exact repeats. Equal entries are not always repeated.

What was measured:
[1] = 28-day repeat-dose toxicity study in healthy rats: plasma exposure (AUC24h); format: in vivo, rat; conditions: day 28
Description: In the repeat-dose toxicity study in rats (Compound #37P018), Compound #37 was given at 0 (vehicle control), 50, 100/75, and 200/150 mg/kg/day for 28 days; some animals from each dose group continued into a 28-day recovery period. After 28 days of treatment, liver neutral lipids from treated and control animals were analyzed with Oil Red O staining.
The more pronounced effects in female rats compared with male rats is consistent with the observed higher plasma exposure (>4-fold higher area under the curve over 24 hours [AUC24h]) at day 28 in females compared with males. Evidence of an effect of Compound #37 on leptin concentrations was also observed in female rats in a dose-dependent manner. As animals gain weight, leptin concentrations naturally increase due to its origin from adipose tissue. Female rats treated with Compound #37 had lower concentrations of leptin compared with the vehicle control group during the treatment period (day 4 and day 28), which was not observed after treatment termination and recovery (day 56) (FIG. 7).

INSIG1 = assay: DIN mouse model: hepatic INSIG1 gene expression; format: in vivo; set-up: key to 2^DDct: expression relative to vehicle group, normalized to 18S; conditions: for 2^DDct / DDct / Dct / INSIG1: Gene Expression: INSIG1, 20 mg/kg group; for 18S: Gene Expression: INSIG1 table, 18S reference, 20 mg/kg group
Description: (§1) Gene expression analysis. Hepatic expression levels of genes involved in lipid metabolism (FAS, SREBP1, ACC1, SCD1), cholesterol metabolism (HMG-CoAR, LDLR), SREBP proteolysis (SCAP, INSIG1), ER stress (PERK), oxidative stress (NRF2), inflammation (MCP-1), and fibrosis (collagen 1α1) were quantified by RTqPCR. Expression level was normalized to 18S gene expression and relative expression to vehicle group was calculated with the […] method.
(§2) Male C57Bl/6J mice (8 weeks old) were housed in enriched ventilated cages (31×12.5×12.7 cm) throughout the experimental phase. Animals' cages litters were changed at least once a week. Animal were housed 5 per cage on inverted 12-hour light cycle (at 09:00 am lights off), 22±2° C. and 55±10% relative humidity. The acclimation period was 20 days. During the acclimation period, all mice were fed a standard diet (RM1 (E) 801492, SDS) and tap water ad libitum. After the acclimation period, mice were fed with the DIN diet (60% fat, cholesterol enriched) and fructose-enriched tap water ad libitum until the end of the experiment.
(§3) At 6 weeks of diet, mice were 4-hour fasted (09:00 am to 1:00 pm) and blood (150 μl/EDTA) was collected at 01:00 pm by retro-orbital bleeding under isoflurane anesthesia. Mice were then allocated in 2 homogenous groups (n=12/group) according to their plasma levels of ALT (average levels: 685U/L), AST (average levels: 627U/L) and HOMA-IR index (average value: 4.7), into 2 homogenous groups (see values at day 0 in Tables 15A and 15B ALT/AST and Tables 16A and 16B for HOMA-IR). Mice were then treated once daily by oral gavage with vehicle (Group 1) or Compound #37 at 20 mg/kg (Group 2) for 70 days.
(§4) Hepatic expression levels of genes involved in lipid (FAS, SREBP1, ACC1, SCD1), cholesterol metabolism (HMG-CoAR, LDLR), in SREBP proteolysis (SCAP, INSIG1), in ER stress (PERK), oxidative stress (NRF2), and inflammation (MCP-1) were not changed. However, expression of collagen 1α1, involved in liver fibrosis, was reduced by 66% in mice treated with Compound #37 (p<0.05 vs. vehicle).

MCP-1 = assay: Short-term Paigen-diet NASH mouse model: hepatic MCP-1 gene expression (RT-qPCR); format: in vivo; set-up: key to MCP-1 gene expression: 2DDct: expression relative to vehicle group, normalized to 18S (2^-ΔΔCt); key to MCP-1 gene expression: DDct: ΔCt (vs 18S) relative to vehicle group; conditions: 21 days
Description: To investigate whether Compound #37 prevents the development of pathology associated with NASH and steatosis in an acute exploratory disease model, a study was conducted using a diet-induced acute liver steatosis model in mice. As described below, in this study, C57BL/6J mice were initiated on the Paigen diet and simultaneously treated with Compound #37 (5, 20, and 40 mg/kg/day) or vehicle control (20% HPβCD 10 mL/kg/day) by oral gavage for 21 days.
After acclimation, 8-week old male C57Bl/6J mice (Charles River) weighing about 25 g were randomized in 4 groups according their body weight and treated once daily around noon by oral gavage with vehicle, or Compound #37 at various for 21 days as follows: Group 1: vehicle-20% (2-hydroxypropyl)-β-cyclodextrin (HP-β-CD) (n=10); Group 2: Compound #37, 5 mg/kg ([…]) Group 4: Compound #37, 40 mg/kg (n=10). During the treatment period, body weight and food intake (measured over 24h) were measured 3 times per week and once a week, respectively. During the acclimation, all mice were fed a standard diet (Special Diets Services RM1 (E), product no. 801492) and tap water ad libitum. After the acclimation period, mice were fed until the end of the experiment with a 60% high fat Paigen diet (60 kcal % fat, 1.25% cholesterol, and 0.5% cholate; D11061901, Research Diet) and tap water ad libitum.
as §1

[2] = DIN mouse model: body weight, food and water intake, mortality; format: in vivo
Description: as §2, §3
Results. […] Water intake tended to be higher in mice treated with, resulting in a 17% increase in cumulative water intake (p<0.05 vs. vehicle). […]

SCD1 = assay: DIN mouse model: hepatic SCD1 gene expression; format: in vivo; set-up: key to 2^DDct: expression relative to vehicle group, normalized to 18S; conditions: for 2^DDct / DDct / Dct / SCD1: Gene Expression: SCD1, 20 mg/kg group; for 18S: Gene Expression: SCD1 table, 18S reference, 20 mg/kg group
Description: as §1, §2, §3, §4

## CC(C)Cc1cc(-c2nc(-c3ccc(NS(=O)(=O)C(F)(F)F)cc3Cl)cs2)ccn1 [Compound 37, N-(3-chloro-4-(2-(2-isobutylpyridin-4-yl)thiazol-4-yl)phenyl)-1,1,1-trifluoromethanesulfonamide]
[1]
  plasma exposure (AUC24h) in females compared with males: > 4 fold
INSIG1; individual animal
  2^DDct: 2.07 and 2.24 and 0.78 (2×) and 1.54 and 1.51 and 1.65 and 1.45 and 1.43 and 0.46 and 2.84
  DDct: −1.05 and −1.17 and 0.36 (2×) and −0.63 and −0.60 and −0.73 and −0.54 and −0.52 and 1.13 and −1.51
  Dct: 9.85 and 9.73 and 11.26 (2×) and 10.27 and 10.3 and 10.17 and 10.36 and 10.38 and 12.03 and 9.39
  INSIG1: 22.4 and 22.28 and 24.1 and 22.7 and 22.65 and 22.76 (2×) and 22.09 and 22.89 and 23.58 and 21.74
INSIG1; mean, n 11
  2^DDct: 1.52
  DDct: −0.44
  Dct: 10.5
  INSIG1: 22.7
  18S: 12.3
INSIG1; individual animal, 20 mg/kg
  18S: 12.55 (2×) and 12.84 and 12.43 and 12.35 (2×) and 12.59 and 11.73 and 12.51 and 11.5 and 11.55
MCP-1; 5 mg/kg, group mean, n 10
  MCP-1 gene expression: 2DDct: 0.74
  MCP-1 gene expression: DDct: 0.62
  MCP-1 gene expression: Dct: 13.9
  MCP-1 gene expression: MCP-1: 26.2
MCP-1; 5 mg/kg, individual animals
  MCP-1 gene expression: 2DDct: 1.08 and 0.98 and 0.28 and 1.4 and 0.5 and 0.46 and 0.85 and 1.04 and 0.48 and 0.33
  MCP-1 gene expression: DDct: −0.11 and 0.03 and 1.82 and −0.49 and 0.99 and 1.11 and 0.24 and −0.06 and 1.07 and 1.59
  MCP-1 gene expression: Dct: 13.2 and 13.36 and 15.15 and 12.84 and 14.32 and 14.44 and 13.57 and 13.27 and 14.4 and 14.92
  MCP-1 gene expression: MCP-1: 26.68 and 26.47 and 26.76 and 26.19 and 26.35 and 27.79 and 25.17 and 25.06 and 25.54 and 26.04
MCP-1; 20 mg/kg, group mean, n 6
  MCP-1 gene expression: 2DDct: 2.15
  MCP-1 gene expression: DDct: −0.5
  MCP-1 gene expression: Dct: 12.8
  MCP-1 gene expression: MCP-1: 25
MCP-1; 20 mg/kg, individual animals
  MCP-1 gene expression: 2DDct: 1.27 and 2.99 and 4.08 and 3.73 and 0.54 and 0.26
  MCP-1 gene expression: DDct: −0.35 and −1.58 and −2.03 and −1.9 and 0.88 and 1.95
  MCP-1 gene expression: Dct: 12.98 and 11.75 and 11.3 and 11.43 and 14.21 and 15.28
  MCP-1 gene expression: MCP-1: 25.89 and 24.04 and 23.5 and 24.46 and 25.7 and 26.54
[2]; 20 mg/kg p.o. daily, 70 days
  body weight and body weight gain: non-significant trend towards lower
[2]; 20 mg/kg/day, 10 weeks
  tolerability: generally well tolerated
SCD1; individual animal
  2^DDct: 1.76 and 2.30 and 0.58 and 0.87 and 0.84 and 1.40 and 1.54 and 1.64 and 0.61 and 0.42 and 2.57
  DDct: −0.81 and −1.20 and 0.78 and 0.20 and 0.26 and −0.48 and −0.62 and −0.71 and 0.72 and 1.25 and −1.36
  Dct: 4.5 and 4.11 and 6.09 and 5.51 and 5.57 and 4.83 and 4.69 and 4.6 and 6.03 and 6.56 and 3.95
  SCD1: 17.05 and 16.66 and 18.93 and 17.94 and 17.92 and 17.42 and 16.42 and 17.11 and 17.53 and 18.11 and 16.3
SCD1; mean, n 11
  2^DDct: 1.32
  DDct: −0.18
  Dct: 5.1
  SCD1: 17.4
  18S: 12.3
SCD1; individual animal, 20 mg/kg
  18S: 12.55 (2×) and 12.84 and 12.43 and 12.35 (2×) and 12.59 and 11.73 and 12.51 and 11.5 and 11.55
